We go through 1 compound from patent US5166146A, “Amino acid cyclopentanophenonthrene compounds” (Roussel Uclaf, priority 1989, dated 1992).

Where a name gives a salt, the structure may show the parent alone.

The target in experiment [1] is T1, Progesterone receptor of rabbit's uterus (Oryctolagus cuniculus, UniProt P06186).
T1 construct: The uteruses were removed, weighed and homogenised at 0° C; from tissue; host or cells: uterus cytosol (105,000 g supernatant) of estradiol-primed impuberal female rabbits
T1 sequence (P06186 1-930): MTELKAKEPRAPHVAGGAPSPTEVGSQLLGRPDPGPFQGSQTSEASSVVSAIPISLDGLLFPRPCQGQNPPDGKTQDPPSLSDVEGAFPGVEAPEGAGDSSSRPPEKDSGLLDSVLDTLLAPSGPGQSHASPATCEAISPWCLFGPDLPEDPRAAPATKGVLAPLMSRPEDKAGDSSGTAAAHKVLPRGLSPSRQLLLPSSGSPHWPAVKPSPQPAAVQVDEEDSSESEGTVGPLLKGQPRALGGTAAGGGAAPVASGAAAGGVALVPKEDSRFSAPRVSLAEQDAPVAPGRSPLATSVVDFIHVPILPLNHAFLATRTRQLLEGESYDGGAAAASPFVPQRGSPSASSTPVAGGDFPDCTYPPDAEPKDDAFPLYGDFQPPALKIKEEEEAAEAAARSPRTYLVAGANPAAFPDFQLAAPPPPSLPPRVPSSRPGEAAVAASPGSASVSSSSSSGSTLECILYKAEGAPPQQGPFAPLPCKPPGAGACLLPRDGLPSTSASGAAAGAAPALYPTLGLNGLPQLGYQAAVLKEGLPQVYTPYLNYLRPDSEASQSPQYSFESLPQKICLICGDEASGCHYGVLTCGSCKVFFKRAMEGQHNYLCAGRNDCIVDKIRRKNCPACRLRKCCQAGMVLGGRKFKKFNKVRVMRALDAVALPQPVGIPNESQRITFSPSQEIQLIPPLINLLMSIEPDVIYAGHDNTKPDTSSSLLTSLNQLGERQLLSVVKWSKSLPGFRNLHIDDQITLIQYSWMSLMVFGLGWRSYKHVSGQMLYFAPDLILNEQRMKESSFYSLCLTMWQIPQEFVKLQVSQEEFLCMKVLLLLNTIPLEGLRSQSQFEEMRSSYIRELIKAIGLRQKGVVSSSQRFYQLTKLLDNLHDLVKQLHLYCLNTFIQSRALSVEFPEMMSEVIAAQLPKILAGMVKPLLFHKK
Put plainly: Relative bond affinity, progesterone receptor of rabbit's uterus (tritiated R 5020 displacement). Format: binding. Particulars: progesterone = 100. The method, then: Impuberal female rabbits weighing about 1 kg received a cutaneous application of 25 μg of estradiol and five days after this treatment, the animals were killed. The uteruses were removed, weighed and homogenised at 0° C. using a Potter teflon-flask ina (TS) 10 mM Tris, 0.25M saccharose, HCl pH 7.4 buffer (1 g of tissue per 50 ml of TS). The homogenate was ultra-centrifuged at 105,000 g×90 mn at 0° C. and aliquots of the supernatant or "cytosol", were incubated at 0° C. for 2 hours and 24 hours with a constant concentration (T=5 nm) of tritiated R 5020 (17,21-dimethyl-19-nor-Δ^4,9 -pregnadien-3, 20-dione, strongly progrestomimetic mimetic having a great affinity for the progesterone receptor), in the presence of increasing concentrations (0-2500 nM) of cold progesterone, or of the product under test. The concentration of bonded tritiated R 5020 (B) was measured in each incubate by the technique of adsorption with carbon-dextran. […]
(§1) The straight line of the equation: [formula] was determined. […]
(§2) The intersections of the straight line I50 and the curves allow the evaluation of the concentrations of the cold reference hormone (CH) and of the cold product under test (CX) which inhibit by 50% the bonding of the tritiated hormone on the receptor. The relative bond affinity (RBA) of the product under test was determined by the equation RBA=100 (CH)/(CX)

Experiment [2] has as its target T2, Androgen receptor of rat's prostate (Rattus norvegicus, UniProt P15207).
T2 construct: The prostates were removed, weighed and homogenized at 0° C; from tissue; host or cells: prostate cytosol (105,000 g supernatant) of castrated male rats
T2 sequence (P15207 1-902): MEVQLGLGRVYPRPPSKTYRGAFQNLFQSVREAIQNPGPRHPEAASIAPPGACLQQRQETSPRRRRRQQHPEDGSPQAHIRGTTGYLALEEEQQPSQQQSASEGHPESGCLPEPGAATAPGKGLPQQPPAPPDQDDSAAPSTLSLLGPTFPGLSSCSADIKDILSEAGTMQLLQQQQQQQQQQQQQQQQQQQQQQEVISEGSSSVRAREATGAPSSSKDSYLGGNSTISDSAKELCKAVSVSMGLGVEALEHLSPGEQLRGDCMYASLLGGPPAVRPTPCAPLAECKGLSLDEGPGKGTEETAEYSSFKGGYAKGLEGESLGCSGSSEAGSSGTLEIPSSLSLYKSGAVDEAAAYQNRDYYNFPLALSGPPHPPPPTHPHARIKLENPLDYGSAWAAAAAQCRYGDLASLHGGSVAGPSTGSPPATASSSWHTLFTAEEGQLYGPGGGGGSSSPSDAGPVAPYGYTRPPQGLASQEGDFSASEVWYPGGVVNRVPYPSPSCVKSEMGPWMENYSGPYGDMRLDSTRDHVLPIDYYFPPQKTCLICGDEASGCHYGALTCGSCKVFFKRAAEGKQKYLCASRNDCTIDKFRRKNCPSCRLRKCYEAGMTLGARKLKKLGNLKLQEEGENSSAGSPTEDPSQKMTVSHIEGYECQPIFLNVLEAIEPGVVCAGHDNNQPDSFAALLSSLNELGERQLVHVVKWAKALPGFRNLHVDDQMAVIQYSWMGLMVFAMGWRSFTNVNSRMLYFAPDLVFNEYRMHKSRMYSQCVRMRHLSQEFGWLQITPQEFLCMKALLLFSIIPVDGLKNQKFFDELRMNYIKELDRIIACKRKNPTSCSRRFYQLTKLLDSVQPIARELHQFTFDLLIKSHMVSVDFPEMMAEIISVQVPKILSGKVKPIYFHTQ
Briefly: Relative bond affinity, androgen receptor of rat's prostate (tritiated testosterone displacement). The conditions noted are these: testosterone = 100. It is filed as binding. The procedure: Male rats weighing of 160 to 200 g were castrated and 24 hours after the castration, the animals were killed. The prostates were removed, weighed and homogenized at 0° C. using a Potter Teflon-flask in a (TSDPM) 10 mM Tris, 0.25 M saccharose, 0.1 mM phenyl methane sulfonyl fluoride, 20 mM molybdate, 2mM dithiothreitol, HCl pH 7.4 buffer (1 g of tissue per 5 ml of TSDPM). The homogenate was ultracentrifuged at 105,000 g×60 mn at 0° C. and aliquots of the supernatant or "cytosol" were incubated at 0° C. with a constant concentration of tritiated testosterone in the presence of increasing concentrations (0-1000 nM) of cold testosterone or of the product under test. […]
(§3) The calculation of the relative bond affinity (RBA) was identical for all receptors. […]
as §1, §2

The test system of the next experiment is rat thymocytes. Briefly: Anti-glucocorticoid activity vis-a-vis dexamethasone: incorporation of uridine in rat thymocytes. It is filed as cell-based. The source says:
Glucocorticoids cause an inhibition of the incorporation of nucleosides in lymphoid tissue and the measurement of the incorporation of radio-active uridine in the thymocytes in the presence of a product under test allows its glucocorticoid activity to be evaluated.
In accordance with the technique described by Dausse et al (3), the thymus of a suprarenalectomized rat weighing 160 to 180 g was removed, shredded and homogenized slowly using a teflon-flask homogenizer in Hanks solution. The cellular suspension was filtered on gauze, then centrifuged at 800 g×10 mn. A new centrifugation was carried out at 800 g×10 mm and the deposit was suspended in a nutritive medium (M.E.M. Gibco). The cellular concentration was adjusted to approximately 20×10^6 cells per ml and aliquots of 250 μl were incubated under carbogen for 3 hours at 37° C. with 5×10^-8 M of dexamethasone in the presence or not of increasing concentrations of product (10^-8 to 10^-6 M). 0.1 uCi of tritiated uridine was added to each incubate and the incubation was continued for one hour. The incubates were cooled and 1 ml of a cold solution of trichloroacetic acid (TCA) at 5% weight/volume was added. […] The radioactivity retained on the filters (representing the tritiated uridine incorporated in the thymocytes) was measured using a liquid scintillation spectrometer.

For experiment [3], the target named is T3, Glucocorticoid receptor of rat's thymus (Rattus norvegicus, UniProt P06536).
T3 construct: The thymuses were removed and homogenized at 0° C; from tissue; host or cells: thymus cytosol (105,000 g supernatant) of adrenalectomized male rats
T3 sequence (P06536 1-795): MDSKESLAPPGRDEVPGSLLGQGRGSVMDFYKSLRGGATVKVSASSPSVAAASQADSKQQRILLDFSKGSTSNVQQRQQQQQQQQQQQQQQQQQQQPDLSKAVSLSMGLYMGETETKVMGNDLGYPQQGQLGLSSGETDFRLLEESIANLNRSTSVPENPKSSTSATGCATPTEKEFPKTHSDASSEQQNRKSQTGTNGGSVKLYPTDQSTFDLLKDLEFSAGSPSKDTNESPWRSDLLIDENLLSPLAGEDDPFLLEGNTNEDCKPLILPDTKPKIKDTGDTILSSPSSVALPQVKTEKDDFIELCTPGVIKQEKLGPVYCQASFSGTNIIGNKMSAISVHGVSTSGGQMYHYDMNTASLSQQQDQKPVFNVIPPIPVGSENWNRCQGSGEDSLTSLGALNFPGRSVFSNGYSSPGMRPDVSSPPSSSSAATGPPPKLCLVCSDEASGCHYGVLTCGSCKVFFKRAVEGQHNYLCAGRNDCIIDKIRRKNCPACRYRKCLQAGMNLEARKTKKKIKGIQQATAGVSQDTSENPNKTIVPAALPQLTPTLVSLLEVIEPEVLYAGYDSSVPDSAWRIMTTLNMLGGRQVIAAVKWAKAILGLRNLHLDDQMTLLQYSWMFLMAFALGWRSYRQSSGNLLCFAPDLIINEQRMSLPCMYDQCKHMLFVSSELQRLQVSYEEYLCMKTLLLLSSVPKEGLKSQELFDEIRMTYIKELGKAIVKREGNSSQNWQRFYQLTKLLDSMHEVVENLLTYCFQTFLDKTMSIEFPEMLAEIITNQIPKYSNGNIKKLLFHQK
Briefly: Relative bond affinity, glucocorticoid receptor of rat's thymus (tritiated dexamethasone displacement). It is filed as binding. Particulars: dexamethasone = 100. The method, then:
Male rats weighing 160 to 200 g were suprarenalectomized and 4 to 8 days after this removal, the animals were killed. The thymuses were removed and homogenized at 0° C. using a Potter teflon-flask in a (TSD) 10 mM Tris, 0.25M saccharose, 2mM dithiothreitol, HCl, pH 7.4 buffer (1 g of tissue per 10 ml of TSD). The homogenate was ultracentrifuged at 105,000 g×90 mn at 0° C. and aliquots of the supernatant or "cystosol" were incubated at 0° C. for 4 hours and 24 hours with constant concentration (T=2.5 nM) of tritiated dexamethasone in the presence of increasing concentrations (0-2,500 nM) of cold dexamethasone or of the cold product under test. The concentration of the bonded tritiated dexamethasone (B) was then measured in each incubate by the technique of adsorption with carbon-dextran.
as §3, §1, §2

For the compound `CC#C[C@]1(O)CC[C@H]2[C@@H]3CCC4=CC(=O)CCC4=C3[C@@H](c3ccc(N(C)CC(=O)O)cc3)C[C@@]21C` [Example 1, Sodium salt of [[4-[17α-(1-propynyl)-Δ^4,9-estradien-17β-ol-3-one-11 β-yl]-phenyl]-methylamino]-acetic acid], the “relative bond affinity (RBA) Progesterone 2H” value in experiment [1] (incubation 2 hours at 0° C.) is 22. In addition, the “relative bond affinity (RBA) Progesterone 24H” value in experiment [1] (incubation 24 hours at 0° C.) was found to be 107. In experiment [2] (incubation (so in the source) at 0° C.), the “relative bond affinity (RBA) Androgen” value is recorded as 10,1. For the same compound, the “relative bond affinity (RBA) Androgen 0,5H” value in experiment [2] (incubation half an hour at 0° C.) is on record as 2,1. Moreover, the “anti-glucocorticoid activity (statement in words)” value with rat thymocytes is “good anti-glucocorticoid activity”. Further, the “relative bond affinity (RBA) Glucocorticoid 4H” value in experiment [3] (incubation 4 hours at 0° C.) worked out at 101. Also, the “relative bond affinity (RBA) Glucocorticoid 24H” value in experiment [3] (incubation 24 hours at 0° C.) is 129.
